Patent US8552202B2, “Furo[3, 2-B] pyrrol-3-ones as cathespin S inhibitors” (Amura Therapeutics Limited, priority 2008, dated 2013)

Assays:
Format in all cases: biochemical
[1] = target: Human recombinant cathepsin S (Homo sapiens (Human), UniProt P25774); assay: In vitro cathepsin Ki inhibition measurements, cathepsin S; details: for selectivity against other mammalian cathepsins (in words): cathepsin S over other mammalian cathepsins; for Ki: read-out: In vitro Ki (nM) vs Cath S
Procedure: (§1) Stock solutions of substrate or inhibitor were made up to 10 mM in 100% dimethylsulfoxide (DMSO) (Rathburns, Glasgow, U.K.) and diluted as appropriately required. In all cases the DMSO concentration in the assays was maintained at less than 1% (vol./vol.). The equilibrium inhibition constants (Ki^ss) for each compound were measured under steady-state conditions monitoring enzyme activity as a function of inhibitor concentration. The values were calculated on the assumption of pure competitive behaviour (Cornish-Bowden, A. Fundamentals of enzyme kinetics Portland Press; 1995, 93-128.).
(§2) The apparent inhibition constant (Ki) for each compound was determined on the basis that inhibition was reversible and occurred by a pure-competitive mechanism. The Ki values were calculated, from the dependence of enzyme activity as a function of inhibitor concentration, by direct regression analysis (Prism v 3.02) using Equation 2 (Cornish-Bowden, A., 1995.).
(§3) In situations where the apparent dissociation constant (Ki^app) approached the enzyme concentrations, the Ki^app values were calculated using a quadratic solution in the form described by Equation 3 (Morrison, J. F. Trends Biochem. Sci., 7, 102-105, 1982; Morrison, J. F. Biochim. Biophys. Acta. 185, 269-286, 1969: Stone, S. R. and Hofsteenge, J. Biochemistry, 25, 4622-4628, 1986).
(§4) Curves were fitted by non-linear regression analysis (Prism) using a fixed value for the enzyme concentration. Equation 4 was used to account for the substrate kinetics, where ‘Ki’ is the inhibition constant, ‘[So]’ is the initial substrate concentration and ‘KM^app’ is the apparent macroscopic binding (Michaelis) constant for the substrate (Morrison, 1982).

[2] = target: Human recombinant cathepsin K (Homo sapiens (Human), UniProt P43235); assay: In vitro cathepsin Ki inhibition measurements, cathepsin K; details: read-out: In vitro Ki (nM) vs Cath K
Human recombinant cathepsin K, sequence (P43235 115-329): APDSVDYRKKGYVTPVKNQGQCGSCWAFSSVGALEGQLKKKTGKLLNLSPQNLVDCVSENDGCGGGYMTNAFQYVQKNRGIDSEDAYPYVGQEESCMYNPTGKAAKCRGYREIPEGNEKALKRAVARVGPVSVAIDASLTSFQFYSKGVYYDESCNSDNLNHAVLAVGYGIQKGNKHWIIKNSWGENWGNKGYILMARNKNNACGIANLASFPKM
Procedure: as §1
Human recombinant cathepsin K (0.25 nM final; B. Turk, Josef, Stefan Institute, Ljubljana, Slovenia), was routinely assayed in 100 mM sodium acetate; pH 5.5 containing 1 mM EDTA, 10 mM L-cysteine and 1.8 μM Z-Leu-Arg-AMC ([S]=KM).
as §2, §3, §4

Human liver cathepsin L = Human liver cathepsin L (Homo sapiens (Human), UniProt P07711); assay: In vitro cathepsin Ki inhibition measurements, cathepsin L; details: read-out: In vitro Ki (nM) vs Cath L
Human liver cathepsin L, sequence (P07711 114-333): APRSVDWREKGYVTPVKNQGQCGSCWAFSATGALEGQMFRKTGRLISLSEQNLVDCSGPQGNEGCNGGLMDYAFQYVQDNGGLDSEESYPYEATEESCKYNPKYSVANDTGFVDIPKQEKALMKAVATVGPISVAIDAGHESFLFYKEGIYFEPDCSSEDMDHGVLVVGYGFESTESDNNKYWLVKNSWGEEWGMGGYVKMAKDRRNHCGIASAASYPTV
Procedure: as §1
Human liver cathepsin L (0.25 nM final, Athens Research and Technology, GA, USA) was routinely assayed in 10 mM bis-tris propane; pH 6.5 containing 1 mM EDTA, 5 mM 2-mercaptoethanol, 1 mM CaCl2 and 4 μM Ac-Phe-Arg-AMC ([S]=KM) (Bachem).
as §2, §3, §4

Human liver cathepsin B = Human liver cathepsin B (Homo sapiens (Human), UniProt P07858); assay: In vitro cathepsin Ki inhibition measurements, cathepsin B; details: read-out: In vitro Ki (nM) vs Cath B
Procedure: as §1
Human liver cathepsin B (0.25 nM final; Merck Biosciences), was routinely assayed in 10 mM bis-tris propane; pH 6.5 containing 1 mM EDTA, 5 mM 2-mercaptoethanol, 1 mM CaCl2 and 60 μM Z-Phe-Arg-AMC ([S]=KM) (Bachem, Weil am Rhein, Germany).
as §2, §3
as §4, with “In Equation 3 ‘vi’ is the observed residual activity, ‘F’ is the difference between the maximum activity (i.e. in the absence of inhibitor) and minimum enzyme activity, ‘Eo’ is the total enzyme concentration, ‘Ki^app’ is the apparent dissociation constant and ‘Io’ is the inhibitor concentration. Curves” for “Curves”

[3] = target: Human recombinant cathepsin V (Homo sapiens (Human), UniProt O60911); assay: In vitro cathepsin Ki inhibition measurements, cathepsin V; details: read-out: In vitro Ki (nM) vs Cath V
Human recombinant cathepsin V, sequence (O60911 114-334): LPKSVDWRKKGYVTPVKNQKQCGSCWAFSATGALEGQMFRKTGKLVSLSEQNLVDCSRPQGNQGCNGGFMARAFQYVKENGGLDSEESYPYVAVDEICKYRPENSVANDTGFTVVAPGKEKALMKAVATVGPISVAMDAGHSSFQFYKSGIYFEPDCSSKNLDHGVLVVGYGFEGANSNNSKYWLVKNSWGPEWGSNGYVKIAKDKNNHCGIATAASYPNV
Procedure: as §1
Human recombinant cathepsin V (0.25 nM final, Merck Biosciences) was routinely assayed in 100 mM sodium acetate; pH 5.5 containing 10 mM L-cysteine, 0.001% (vol./vol.) zwittergent 3-12 (Merck Biosciences) and 5 μM Z-Leu-Arg-AMC (KM=0.5 μM) (Amura).
as §2, §3, §4

Human recombinant cathepsin S, sequence (P25774 115-331): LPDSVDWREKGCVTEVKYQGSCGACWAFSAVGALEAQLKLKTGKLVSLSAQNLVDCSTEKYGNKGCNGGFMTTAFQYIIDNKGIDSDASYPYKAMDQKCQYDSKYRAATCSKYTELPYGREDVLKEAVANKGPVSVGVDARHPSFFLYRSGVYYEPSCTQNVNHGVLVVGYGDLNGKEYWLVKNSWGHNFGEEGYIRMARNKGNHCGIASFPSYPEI

## C[C@H]1CC[C@H]([C@H](NC(=O)c2ccccc2)C(=O)N2C[C@@H](Cl)[C@H]3OCC(=O)[C@H]32)CC1 [Compound 6]
[1]
  selectivity against other mammalian cathepsins (in words): high selectivity
  Ki: 75 nM
[1]; relative to EXAMPLE 1
  less potent verses cathepsin S: 15 fold
[2]
  Ki: > 10000 nM
Human liver cathepsin L
  Ki: > 10000 nM
Human liver cathepsin B
  Ki: > 10000 nM
[3]
  Ki: > 10000 nM

## O=C(N[C@@H](CC1CCCCC1)C(=O)N1CC[C@H]2OCC(=O)[C@H]21)c1ccccc1 [compound (38), reference compound]
[2]
  Ki: > 4000 nM
Human liver cathepsin L
  Ki: 1700 nM
Human liver cathepsin B
  Ki: > 10000 nM
[3]
  Ki: 5700 nM

## CC1CCC([C@H](NC(=O)c2ccccc2)C(=O)N2CC[C@H]3OCC(=O)[C@H]32)CC1 (some centres unmarked) [Compound 4]
[1]; cathepsin S over cathepsin K
  selectivity verses cathepsin K: > 65 fold
[1]
  Ki: 72 nM
[1]; relative to Compound 1
  improvement in in vitro potency against human cathepsin S: 3 fold
[2]
  Ki: > 4800 nM
Human liver cathepsin L
  Ki: > 10000 nM
Human liver cathepsin B
  Ki: > 10000 nM
[3]
  Ki: > 10000 nM

## O=C(N[C@H](C(=O)N1C[C@H](F)[C@H]2OCC(=O)[C@H]21)C1CCCCC1)c1cccc(-n2cnnn2)c1 [Compound 8]
[1]; cathepsin S over cathepsin K
  selectivity verses cathepsin K: 6.8 fold
[1]; relative to Compound 7
  improvement in in vitro potency against human cathepsin S: 3.4 fold
Human liver cathepsin L
  Ki: 4000 nM
Human liver cathepsin B
  Ki: 6000 nM
[3]
  Ki: 2000 nM

## O=C(N[C@H](C(=O)N1CC[C@H]2OCC(=O)[C@H]21)C1CCCCC1)c1ccccc1 [Compound 1]
Human liver cathepsin L
  Ki: 1250 nM
Human liver cathepsin B
  Ki: > 10000 nM
[3]
  Ki: 1900 nM

## C[C@H]1CC[C@H]([C@H](NC(=O)c2cccc(-n3cnnn3)c2)C(=O)N2C[C@H](Cl)[C@H]3OCC(=O)[C@H]32)CC1 [EXAMPLE 2, N—((S)-2-((3aS,6S,6aS)-6-chloro-3-oxodihydro-2H-furo[3,2-b]pyrrol-4(5H,6H,6aH)-yl)-1-((1r,4S)-4-methylcyclohexyl)-2-oxoethyl)-3-(1H-tetrazol-1-yl)benzamide]
[1]
  selectivity against other mammalian cathepsins (in words): high selectivity
  Ki: 2.2 nM
[1]; relative to Compound 7
  improvement in in vitro potency against human cathepsin S: 77 fold
[2]
  Ki: > 8000 nM
Human liver cathepsin L
  Ki: > 10000 nM
Human liver cathepsin B
  Ki: > 10000 nM
[3]
  Ki: > 10000 nM

## O=C(N[C@H](C(=O)N1C[C@H](F)[C@H]2OCC(=O)[C@H]21)C1CCCCC1)c1ccccc1 [Compound 2]
[1]; cathepsin S over cathepsin K
  selectivity verses cathepsin K (in words): little selectivity
[1]; relative to Compound 1
  improvement in in vitro potency against human cathepsin S: 3.8 fold
Human liver cathepsin L
  Ki: 580 nM
Human liver cathepsin B
  Ki: > 7000 nM
[3]
  Ki: 700 nM

## O=C(N[C@H](C(=O)N1C[C@H](Cl)[C@H]2OCC(=O)[C@H]21)C1CCCCC1)c1ccccc1 [Compound 3]
[1]; cathepsin S over cathepsin K
  selectivity verses cathepsin K: 4 fold
[1]; relative to Compound 1
  improvement in in vitro potency against human cathepsin S: 27 fold
Human liver cathepsin L
  Ki: 100 nM
Human liver cathepsin B
  Ki: 780 nM
[3]
  Ki: 100 nM

## C[C@H]1CC[C@H]([C@H](NC(=O)c2ccccc2)C(=O)N2C[C@H](F)[C@H]3OCC(=O)[C@H]32)CC1 [Compound 5]
[1]
  selectivity against other mammalian cathepsins (in words): high selectivity
  Ki: 28 nM
[1]; relative to EXAMPLE 1
  less potent verses cathepsin S: 5.6 fold
[2]
  Ki: > 10000 nM
Human liver cathepsin L
  Ki: > 10000 nM
Human liver cathepsin B
  Ki: > 10000 nM
[3]
  Ki: > 10000 nM

## O=C(N[C@H](C(=O)N1C[C@@H](Cl)[C@H]2OCC(=O)[C@H]21)C1CCCCC1)c1cccc(-n2ccnc2)c1 [Compound 14]
Human liver cathepsin L
  Ki: 1900 nM
Human liver cathepsin B
  Ki: 5000 nM
[3]
  Ki: 1800 nM

## C[C@H]1CC[C@H]([C@H](NC(=O)c2cccc(-n3ccnc3)c2)C(=O)N2C[C@H](F)[C@H]3OCC(=O)[C@H]32)CC1 [Compound 15]
[1]
  Ki: 15 nM
[2]
  Ki: > 10000 nM
Human liver cathepsin L
  Ki: > 10000 nM
Human liver cathepsin B
  Ki: > 10000 nM
[3]
  Ki: > 10000 nM

## CC1(C)CCC([C@H](NC(=O)c2cccc(-n3cnnn3)c2)C(=O)N2C[C@H](Cl)[C@H]3OCC(=O)[C@H]32)CC1 [EXAMPLE 3, N—((S)-2-((3aS,6S,6aS)-6-chloro-3-oxodihydro-2H-furo[3,2-b]pyrrol-4(5H,6H,6aH)-yl)-1-(4,4-dimethylcyclohexyl)-2-oxoethyl)-3-(1H-tetrazol-1-yl)benzamide]
[1]
  selectivity against other mammalian cathepsins (in words): high selectivity
  Ki: 12 nM
[1]; relative to Compound 7
  improvement in in vitro potency against human cathepsin S: 15 fold
[2]
  Ki: > 10000 nM
Human liver cathepsin L
  Ki: > 10000 nM
Human liver cathepsin B
  Ki: > 10000 nM
[3]
  Ki: 1700 nM

## O=C(N[C@H](C(=O)N1C[C@H](Cl)[C@H]2OCC(=O)[C@H]21)C1CCCCC1)c1cccc(-n2ccnc2)c1 [Compound 13]
Human liver cathepsin L
  Ki: 270 nM
Human liver cathepsin B
  Ki: 440 nM
[3]
  Ki: 170 nM

## C[C@H]1CC[C@H]([C@H](NC(=O)c2ccccc2)C(=O)N2C[C@H](Cl)[C@H]3OCC(=O)[C@H]32)CC1 [EXAMPLE 1, N—((S)-2-((3aS,6S,6aS)-6-chloro-3-oxodihydro-2H-furo[3,2-b]pyrrol-4(5H,6H,6aH)-yl)-1-((1r,4S)-4-methylcyclohexyl)-2-oxoethyl)benzamide]
[1]
  selectivity against other mammalian cathepsins (in words): high selectivity
  Ki: 5 nM
[1]; relative to Compound 1
  improvement in in vitro potency against human cathepsin S: 45 fold
[1]; relative to prior art compound (38)
  improvement in in vitro potency against human cathepsin S: 111 fold
[2]
  Ki: > 10000 nM
Human liver cathepsin L
  Ki: 1400 nM
Human liver cathepsin B
  Ki: > 10000 nM
[3]
  Ki: > 10000 nM

## O=C(N[C@H](C(=O)N1CC[C@H]2OCC(=O)[C@H]21)C1CCCCC1)c1cccc(-n2cnnn2)c1 [Compound 7]
Human liver cathepsin L
  Ki: > 6500 nM
Human liver cathepsin B
  Ki: > 10000 nM
[3]
  Ki: 5000 nM

## O=C(N[C@H](C(=O)N1C[C@H](Cl)[C@H]2OCC(=O)[C@H]21)C1CCCCC1)c1cccc(-n2cnnn2)c1 [Compound 9]
[1]; cathepsin S over cathepsin K
  selectivity verses cathepsin K: 7.5 fold
[1]; relative to Compound 7
  improvement in in vitro potency against human cathepsin S: 47 fold
Human liver cathepsin L
  Ki: > 1200 nM
Human liver cathepsin B
  Ki: 650 nM
[3]
  Ki: 240 nM

## C[C@H]1CC[C@H]([C@H](NC(=O)c2cccc(-n3cnnn3)c2)C(=O)N2CC[C@H]3OCC(=O)[C@H]32)CC1 [Compound 10]
[1]; cathepsin S over cathepsin K
  selectivity verses cathepsin K: > 125 fold
[1]
  Ki: 79 nM
[1]; relative to Compound 7
  improvement in in vitro potency against human cathepsin S: 2.2 fold
[2]
  Ki: > 10000 nM
Human liver cathepsin L
  Ki: > 10000 nM
Human liver cathepsin B
  Ki: > 10000 nM
[3]
  Ki: > 10000 nM

## C[C@H]1CC[C@H]([C@H](NC(=O)c2cccc(-n3cnnn3)c2)C(=O)N2C[C@@H](Cl)[C@H]3OCC(=O)[C@H]32)CC1 [Compound 12]
[1]
  selectivity against other mammalian cathepsins (in words): high selectivity
  Ki: 55 nM
[1]; relative to EXAMPLE 2
  less potent verses cathepsin S: 25 fold
[2]
  Ki: > 10000 nM
Human liver cathepsin L
  Ki: > 10000 nM
Human liver cathepsin B
  Ki: > 10000 nM
[3]
  Ki: > 10000 nM

## C[C@H]1CC[C@H]([C@H](NC(=O)c2cccc(-n3ccnc3)c2)C(=O)N2C[C@H](Cl)[C@H]3OCC(=O)[C@H]32)CC1
[1]
  Ki: 0.4 nM
[2]
  Ki: > 3000 nM
Human liver cathepsin L
  Ki: 4500 nM
Human liver cathepsin B
  Ki: 4000 nM
[3]
  Ki: 3200 nM

## C[C@H]1CC[C@H]([C@H](NC(=O)c2cccc(-n3cnnn3)c2)C(=O)N2C[C@H](F)[C@H]3OCC(=O)[C@H]32)CC1 [Compound 11]
[1]
  selectivity against other mammalian cathepsins (in words): high selectivity
  Ki: 24 nM
[1]; relative to EXAMPLE 2
  less potent verses cathepsin S: 11 fold
[2]
  Ki: > 10000 nM
Human liver cathepsin L
  Ki: > 10000 nM
Human liver cathepsin B
  Ki: > 10000 nM
[3]
  Ki: > 10000 nM
